Assay results published in the NIST ThermoML archive (doi:10.1016/j.fluid.2018.12.005).
Where “and” joins values, the source holds several entries; their conditions need not be identical. Equal entries are not always repeated. ± gives the expanded uncertainty stated by the source.

How the values were obtained:
[1] = refractive index (Na D-line) (dimensionless); conditions: 298.15 K; 101.33 kPa; Liquid; Standard Abbe refractometry
[2] = Liquid; for vapor or sublimation pressure: Closed cell (Static) method; for mass density: 298.15 K, 101.33 kPa, Vibrating tube method

| refractive index [1] | vapor or sublimation pressure ([2]; 283.15 K) [kPa] | vapor or sublimation pressure ([2]; 293.15 K) [kPa] | mass density [2] | vapor or sublimation pressure ([2]; 303.15 K) [kPa] | vapor or sublimation pressure ([2]; 313.15 K) [kPa] | vapor or sublimation pressure ([2]; 323.16 K) [kPa] | vapor or sublimation pressure ([2]; 283.14 K) [kPa] | vapor or sublimation pressure ([2]; 283.16 K) [kPa] | vapor or sublimation pressure ([2]; 293.14 K) [kPa] | vapor or sublimation pressure ([2]; 303.12 K) [kPa] | vapor or sublimation pressure ([2]; 313.13 K) [kPa] | vapor or sublimation pressure ([2]; 313.2 K) [kPa] | vapor or sublimation pressure ([2]; 323.13 K) [kPa] | vapor or sublimation pressure ([2]; 323.17 K) [kPa] | SMILES |
| --- | --- | --- | --- | --- | --- | --- | --- | --- | --- | --- | --- | --- | --- | --- | --- |
| 1.268 ± 0.002 | 1.51 ± 0.2 | 2.72 ± 0.2 | 1755 ± 2 kg/m3 | 4.72 ± 0.2 | 7.86 ± 0.21 | 12.6 ± 0.21 | – | – | – | – | – | – | – | – | FC(F)(F)C(F)(F)C(F)(F)C(F)(F)C(F)(F)C(F)(F)C(F)(F)C(F)(F)F [octadecafluorooctane] |
| 1.251 ± 0.002 and 1.253 ± 0.002 | – | 23.4 ± 0.3 | 1701 ± 7 kg/m3 and 1670 ± 2 kg/m3 | 36.3 ± 0.3 | – | – | 14.6 ± 0.2 | 14.4 ± 0.2 | 23.5 ± 0.3 | 36.2 ± 0.3 | 54.1 ± 0.4 | 54.4 ± 0.4 | 78.8 ± 0.5 | 78.9 ± 0.4 | FC(F)(F)C(F)(F)C(F)(F)C(F)(F)C(F)(F)C(F)(F)F [perfluorohexane] |
| 1.375 ± 0.002 | – | – | 655 ± 2 kg/m3 | – | – | – | – | – | – | – | – | – | – | – | CCCCCC [hexane] |
